Bridge positions count the residues as written; N and C are the ends. Square brackets hold non-standard residues; d marks the D form. Peptide text beside a SMILES is read from it. I, II: the chains in the order shown. Dap = NC[C@H](N)C(=O)O; Ahx = NCCCCCC(=O)O
Legend:
[1] = system: HaCaT human keratinocytes; assay: Cytotoxicity (WST-1 and LDH); assay type: cell-based
Method: (§1) Cells (5 × 10^5 cells/mL) were seeded in 96-well plates (100 μL/well; Thermo Scientific) and allowed to adhere for 24 h. After adhesion, monolayers were exposed to two-fold serial dilutions of the tetrameric and reference peptides (final concentrations: 60–0.05 µM) in fresh DMEM containing 2% (v/v) FBS, and incubated for 24 h at 37 °C in a humidified 5% CO2 atmosphere. Cell viability was assessed using the water-soluble tetrazolium salt (WST-1; Roche) assay, and membrane integrity was measured using the lactate dehydrogenase (LDH) release assay (Abcam), following manufacturer instructions. Absorbance was measured using the Synergy H1 microplate reader (Biotek). Results are expressed as percentages relative to untreated control (for WST-1) and positive lysis control (for LDH) and all experiments were performed in triplicate.

[2] = system: human skin fibroblast cells (BJ); assay: Cytotoxicity (WST-1 and LDH); assay type: cell-based
Method: as §1

[3] = system: TNF-α production by dTHP-1 macrophages stimulated with LPS (E. coli O111:B4); assay: Endotoxin neutralization, LPS-stimulated macrophages; assay type: cell-based, human; conditions: LPS 5 ng/mL with 1 or 2 µM peptide, 4 h, serum-free RPMI, ELISA, versus NT
Method: (§2) The endotoxin-neutralizing capacity of the peptides was assessed by measuring tumor necrosis factor-alpha (TNF-α) production by dTHP-1 macrophages. dTHP-1 macrophages were stimulated with either lipopolysaccharide (LPS; E. coli O111:B4; 5 ng/mL, Sigma-Aldrich) or UV-inactivated S. aureus JAR060131 (MOI 2; as described in Section 5.2), in the presence or absence of one or 2 µM peptides. Cells were cultured in serum-free RPMI and incubated for 4 h at 37 °C with 5% CO2. Positive controls consisted of cells stimulated with LPS or UV-S. aureus without peptide treatment (no treatment, NT), and unstimulated cells served as negative controls. After stimulation, cell supernatants were collected, and cytokine levels of TNF-α were quantified using human ELISA kits (R&D Systems, USA) according to the manufacturer’s instructions. Each condition was tested in triplicate.

[4] = system: TNF-α production by dTHP-1 macrophages stimulated with UV-inactivated S. aureus JAR060131; assay: Endotoxin neutralization, UV-inactivated S. aureus-stimulated macrophages; assay type: cell-based; conditions: MOI 2 with 1 or 2 µM peptide, 4 h, ELISA, versus NT
Method: as §2

HaCaT keratinocytes = assay: In vitro scratch wound assay; assay type: cell-based, human; conditions: 1 µM peptide (TGF-β 20 ng/mL); for Percentage of wound closure: 60 h (legend: 64 h); for Percentage of wound closure / Rate of cell migration: versus no treatment
Method: Cell migration following injury was assessed using an in vitro scratch assay with the IncuCyte wound maker tool (Sartorius). HaCaT keratinocytes were seeded in 96-well ImageLock plates (Sartorius) at 3 × 10^5 cells/well (100 µL) in DMEM supplemented with 10% FBS and incubated at 37 °C, 5% CO2 for 48 h, with medium change at 24 h, until confluence. Uniform scratches were introduced using the wound maker tool according to the manufacturer’s instructions. After wounding, wells were washed twice with 100 µL PBS to remove cell debris. Cells were then treated with 1 µM peptides in serum-free DMEM, to focus specifically on cell migration from the wound edges. The absence of serum minimizes interference with peptide activity. Transforming growth factor-beta (TGF-β; human; 20 ng/mL; Sigma-Aldrich) and 5% dimethyl sulfoxide (DMSO; Sigma-Aldrich) were used as positive and negative controls, respectively. Additional controls included serum-free DMEM (no-treatment control) and 50% (v/v) acetonitrile in Milli-Q water as solvent control. Wound closure was monitored using the IncuCyte S3 live-cell imaging system (Sartorius) with bright-field microscopy. Images were captured every 6 h for up to 60 h. Image analysis was performed using ImageJ software (version 1.53t, NIH, USA) with the “Wound Healing” plugin, as described by Suarez Arnedo et al. ([Suarez-Arnedo et al., 2020]). Quantitative parameters included wound width (µm), percent wound closure, and migration rate (µm/hour).

[5] = system: S. aureus LUH14616 (MRSA); assay: Ex vivo human skin wound infection model; design: species or system Staphylococcus aureus
Text: Human skin from 3 donors was obtained via the Residual Tissue Biobank of the Red Cross Hospital (Beverwijk, Netherlands). The use of these coded, post-operative residual tissue samples was approved by patients through the informed opt-out-plus protocol of the Red Cross Hospital Skin ([Code-of-Conduct-for-Health-Research, 2022]) and processed for an ex vivo wound infection model as described ([Dijksteel et al., 2020]). The Wounded skin grafts were sectioned into approximately 1 cm^2 samples using a sterile scalpel and were decontaminated by immersion in 70% ethanol for 30 min, followed by three PBS washes. Samples were placed dermis-down and wound-side-up on stainless steel grids with central indentations, positioned in 12-well plates, and cultured at the air–liquid interface in DMEM at 37 °C and 5% CO2. To confine reagents to the wound area, a resin barrier (OpalDam; Ultradent) was applied to the wounded area and polymerized using a hand-held UV light (Valo X) for 10 s. The wounds were then topically infected with 10 µL of S. aureus LUH14616 suspension of 1 × 10^7 CFU/mL (final dose: 1 × 10^5 CFU/graft) in PBS for 1 h, followed by topical application of 10 µL of peptide solution for 4 h. Chlorhexidine (0.5% (v/v) in 70% ethanol; Entick B.V.) and PBS were used as positive and negative controls, respectively. After treatment, tissue samples were transferred to polypropylene vials containing 1 mL PBS supplemented with 0.025% (v/v) SPS and a 7 mm stainless steel bead. Homogenization was performed using a MagnaLyser System (Roche) with three 30-s cycles at 7,000 rpm, with 30 s of cooling on ice between cycles. Homogenates were 10-fold serially diluted in PBS, and 100 µL aliquots were plated on BA plates. CFUs were enumerated after overnight incubation at 37 °C.

[6] = 20 µM and 200 µM topical, 1 h infection, 4 h treatment, versus PBS (Figure 4B)

SMILES: N=C(N)NCCC[C@H](NC(=O)[C@H](Cc1c[nH]c2ccccc12)NC(=O)[C@H](CCC(N)=O)NC(=O)[C@H](Cc1c[nH]c2ccccc12)NC(=O)[C@H](CCCNC(=N)N)NC(=O)[C@@H](N)CCCNC(=N)N)C(=O)NC[C@H](NC(=O)[C@H](CCCNC(=N)N)NC(=O)[C@H](Cc1c[nH]c2ccccc12)NC(=O)[C@H](CCC(N)=O)NC(=O)[C@H](Cc1c[nH]c2ccccc12)NC(=O)[C@H](CCCNC(=N)N)NC(=O)[C@@H](N)CCCNC(=N)N)C(=O)NCCCCCC(=O)N[C@@H](CSSC[C@H](NC(=O)CCCCCNC(=O)[C@H](CNC(=O)[C@H](CCCNC(=N)N)NC(=O)[C@H](Cc1c[nH]c2ccccc12)NC(=O)[C@H](CCC(N)=O)NC(=O)[C@H](Cc1c[nH]c2ccccc12)NC(=O)[C@H](CCCNC(=N)N)NC(=O)[C@@H](N)CCCNC(=N)N)NC(=O)[C@H](CCCNC(=N)N)NC(=O)[C@H](Cc1c[nH]c2ccccc12)NC(=O)[C@H](CCC(N)=O)NC(=O)[C@H](Cc1c[nH]c2ccccc12)NC(=O)[C@H](CCCNC(=N)N)NC(=O)[C@@H](N)CCCNC(=N)N)C(N)=O)C(N)=O [LBT-1] (I: H-RRWQWR[Dap][Ahx]C-NH2 / II: H-RRWQWR[Dap][Ahx]C-NH2 / III: H-RRWQWR / IV: H-RRWQWR; amide I:7-III:C, II:7-IV:C; disulfide I:9-II:9; N-terminus and C-terminus assumed)
- Cytotoxicity threshold (tolerance), WST-1 and LDH [1]: 15 µM
- Cytotoxicity, LDH leakage [1]: 15 µM
- Cytotoxicity, Metabolic activity [1]: 15 µM
- Cytotoxicity threshold (tolerance), WST-1 and LDH [2]: 7.5 to 15 µM
- Cytotoxicity, LDH leakage [2]: 7.5 µM
- Cytotoxicity, Metabolic activity [2]: 15 µM
- Reduction of LPS-induced TNFα levels [3]: effectively neutralize
- Reduction of TNFα production induced by UV-inactivated S. aureus [4]: not observed
- Percentage of wound closure (HaCaT keratinocytes): significant wound closure
- Rate of cell migration (HaCaT keratinocytes): ns
- Reduction of bacterial load (CFU counts) [5, 6]: dose-dependent reduction
- Reduction of bacterial load after different infection durations ([5]; 200 µM for 4 h, started 0.5, 1 or 2 h post-infection (Figure 4D)): significantly reduced bacterial load in all groups
- Reduction of bacterial load (CFU counts) ([5]; 200 µM topical, 4 h treatment, versus PBS (Figure 4B), p < 0.05): significant decrease
- Reduction of bacterial load (CFU counts) ([5]; 200 µM topical, 4 h treatment, versus untreated control (Figure 4C), p < 0.001): significantly reduced bacterial load
- Effective bactericidal concentration ([5]; ex vivo wounded human skin, 4 h treatment): 200 µM

SMILES: N=C(N)NCCC[C@H](NC(=O)[C@H](Cc1c[nH]c2ccccc12)NC(=O)[C@H](CCC(N)=O)NC(=O)[C@H](Cc1c[nH]c2ccccc12)NC(=O)[C@H](CCCNC(=N)N)NC(=O)[C@@H](N)CCCNC(=N)N)C(=O)NCCCC[C@H](NC(=O)[C@H](CCCNC(=N)N)NC(=O)[C@H](Cc1c[nH]c2ccccc12)NC(=O)[C@H](CCC(N)=O)NC(=O)[C@H](Cc1c[nH]c2ccccc12)NC(=O)[C@H](CCCNC(=N)N)NC(=O)[C@@H](N)CCCNC(=N)N)C(=O)NCCCCCC(=O)N[C@@H](CSSC[C@H](NC(=O)CCCCCNC(=O)[C@H](CCCCNC(=O)[C@H](CCCNC(=N)N)NC(=O)[C@H](Cc1c[nH]c2ccccc12)NC(=O)[C@H](CCC(N)=O)NC(=O)[C@H](Cc1c[nH]c2ccccc12)NC(=O)[C@H](CCCNC(=N)N)NC(=O)[C@@H](N)CCCNC(=N)N)NC(=O)[C@H](CCCNC(=N)N)NC(=O)[C@H](Cc1c[nH]c2ccccc12)NC(=O)[C@H](CCC(N)=O)NC(=O)[C@H](Cc1c[nH]c2ccccc12)NC(=O)[C@H](CCCNC(=N)N)NC(=O)[C@@H](N)CCCNC(=N)N)C(N)=O)C(N)=O [LBT] (I: H-RRWQWRK[Ahx]C-NH2 / II: H-RRWQWRK[Ahx]C-NH2 / III: H-RRWQWR / IV: H-RRWQWR; amide I:7-III:C, II:7-IV:C; disulfide I:9-II:9; N-terminus and C-terminus assumed)
- Cytotoxicity, LDH leakage [1]: 30 µM
- Cytotoxicity, Metabolic activity [1]: 30 µM
- Cytotoxicity, LDH leakage [2]: 15 µM
- Cytotoxicity, Metabolic activity [2]: 30 µM
- Reduction of LPS-induced TNFα levels [3]: effectively neutralize
- Reduction of TNFα production induced by UV-inactivated S. aureus [4]: not observed
- Percentage of wound closure (HaCaT keratinocytes): significant wound closure
- Wound width reduction (HaCaT keratinocytes; serum-free DMEM, versus untreated control): significantly reduced wound width
- Rate of cell migration (HaCaT keratinocytes): highest migration (p < 0.05)
- Reduction of bacterial load (CFU counts) [5, 6]: minimal and non-significant reductions
